Where a name gives a salt, the structure may show the parent alone.

Data set [1] is described as follows: IPI content of L3-L5 spinal segments by mass spectrometry. Particulars: CART(55-76)-treated inflamed rats; LC-MS/MS; p = 0.032 vs inflamed, p = 0.027 vs naive. The data set is classed as in vivo, Wistar rat. As for the experimental part: Three naïve adult male Wistar rats (NG10, NG11, and NG12), 3 rats with unilateral carrageenan-induced hind paw inflammation (GG9, GG10, and GG11), and 3 inflamed rats that received CART(55-76) peptide intrathecally (CG9, CG10, and CG11) were decapitated, and L3–L5 spinal cord segments were removed and snap frozen on dry ice. Tissue was homogenized by sonication in cold acetonitrile (4 °C) in a volume of 10 µL/mg of tissue and centrifuged for 10 min at 14,000 rpm. Supernatant was transferred into Eppendorf tubes and stored at −80 °C until use.
Standard solution of IPI was used for making the calibration curve in the range of 0–50 ng/mL. […] Water containing 0.1% formic acid (eluent A) and acetonitrile containing 0.1% formic acid (eluent B) were used for separation in gradient mode. […] The initial concentration was reached within 0.5 min, and the equilibration time was 5.5 min. The flow rate was 0.5 mL/minute. Column temperature was ambient. The injection volume was 10 µL. […] MRM transitions were identified in product ion scan mode. […] Dwell times were 150 ms for each transition.

The test system of data set [2] is TLR4 activation-induced cytokine expression. Particulars: cited from earlier work. The source says:
The synaptic model of hyperalgesia is the LTP at C-fibre synapses. The induction of hyperalgesia and LTP by inducible mediators including TNFα was discovered and called gliogenic LTP [35]. […] The opioid-mediated effect is established by an exogenous peptide if an opioid receptor is activated or if an endogenous opioid release is induced.

In data set [3] the test system is TLR4 in the TLR4/myeloid differentiation protein-2 heterodimer. Particulars: ref [68],[69],[70] (NTX, naloxone), [71] (CTAP); cited from earlier work. An excerpt:
(§1) The opioid-mediated effect is established by an exogenous peptide if an opioid receptor is activated or if an endogenous opioid release is induced.

Data set [4] relates to inflammatory hyperalgesia. The note with it: naltrexone alone; ref [67]; cited from earlier work.
Excerpt: as §1

For data set [5], the system named is chronic constriction injury model. Particulars: chronic constriction injury model in rats; ref [75]; cited from earlier work. An excerpt:
(§2) The similarity of the first two amino acids in the N-terminal region of CART(62-76) to endogenous opioid peptides raises the possibility that this fragment may also bind to […]. Specific binding studies are necessary to answer this question. […] Further studi ...

The test system of another data set is chronic pain states. The note with it: low-dose NTX, humans; ref [76]; cited from earlier work.
Excerpt: as §2

The subject of data set [6] is hyperalgesia provoked by carrageenan or partial nerve ligation. Particulars: no ref given; cited from earlier work. An excerpt:
Further studies are needed to reveal the signalling mechanism to understand this process.

Data set [7] deals with spinal astrocytes (TNFα secretion). As to the kind of experiment: TNFα secretion of LPS-stimulated spinal astrocyte cultures, ELISA. It is filed as cell-based, Wistar rat. Particulars: 1 μg/mL LPS, control level set to 100%. As for the experimental part:
(§3) For the production of spinal cord astrocyte cultures, we followed the procedure already described by Pap et al. with slight modifications. Briefly, the whole spinal cord was removed from 7–8 day-old Wistar rat pups after decapitation and was placed into ice-cold dissecting buffer (136 mM NaCl, 5.2 mM KCl, 0.64 mM Na2HPO4, 0.22 mM KH2PO4, 16.6 mM glucose, 22 mM sucrose, 10 mM HEPES supplemented with 0.06 U/mL penicillin and 0.06 U/mL streptomycin). The isolated spinal cords were cleaned of the meninges, then were placed into fresh dissecting solution containing 0.025 g/mL bovine trypsin (Merck–Sigma-Aldrich), and were incubated at 37 °C for 30 min. Then, the solution was replaced by Minimum Essential Medium (MEM, Gibco, Life Technologies Ltd., Parsely, UK) supplemented with 10% Fetal Bovine Serum (FBS, Hyclone, GE Healthcare Bio-Sciences, Pittsburgh, PA, USA). […]
ELISA was performed as already described. […] Colour reaction was developed by o-phenylene-diamine, and the optical density was measured at λ = 492 nm by ELISA plate reader (Titertek, Uniscan, Flow Laboratories, Helsinki, Finland).
Optical density data were averaged, and the standard error of mean values was calculated for each treatment. […] Statistically significant differences were calculated by one-way ANOVA followed by Student-Newman-Keuls pairwise comparison. […]

The test system of data set [8] is spinal astrocytes (DPP4 expression). As to the kind of experiment: DPP4 expression of spinal astrocytes, western blot. It is filed as cell-based, Wistar rat. Particulars: 1 μg/mL LPS. As for the experimental part: as §3, with “USA). Finally, cells were suspended by gentle suspension of the tissue pieces by a Pasteur pipette. The cell number was identified, the cell density was set to 1 × 10^6/mL, and the cells were placed into 24 well tissue culture plates (0.5 mL/well).” for “USA).”
Fractions of 50 µg protein/lane cytosol were run on 10% polyacrylamide gels. […] Relative protein levels for DPP4 upon 16 h of LPS treatment were quantified by densitometry in three independent astrocyte cultures and analysed by the Kolmogorov-Smirnov statistical test.

The test system of data set [9] is spinal astrocytes (DPP4, TLR4, caveolin-1). As to the kind of experiment: Immunocytochemistry of spinal astrocytes (DPP4, TLR4, caveolin-1). It is filed as cell-based, Wistar rat. As for the experimental part: as §3, with “USA). Finally, cells were suspended by gentle suspension of the tissue pieces by a Pasteur pipette. The cell number was identified, the cell density was set to 1 × 10^6/mL, and the cells were placed into 24 well tissue culture plates (0.5 mL/well). The cell cultures were kept at 37 °C in a 5% CO2 atmosphere, and the medium was replaced the following day and then every second day.” for “USA).”

Regarding `CC[C@H](C)[C@H](N)C(=O)N1CCC[C@H]1C(=O)N[C@H](C(=O)O)[C@@H](C)CC` [IPI, isoleucine-proline-isoleucine], in data set [1], the “IPI concentration of spinal segments, change” value is recorded as “increased significantly”.

With `O=C1CC[C@@]2(O)[C@H]3Cc4ccc(O)c5c4[C@@]2(CCN3CC2CC2)[C@H]1O5` [NTX, naltrexone hydrochloride], the “Effect on TLR4 agonist-induced cytokine production” value in data set [2] (ref [72]) is reported as “did not block the TLR4 agonist-induced cytokine production”. In [3], the TLR4 antagonism entry is on record as “TLR4 antagonists”. Also, the “Effect on inflammatory hyperalgesia” value in data set [4] was “no effect on inflammatory hyperalgesia”. Further, the Antiallodynic effect result in data set [5] is “antiallodynic effect”. The “Effect in chronic pain states” value with chronic pain states is “effective in a variety of chronic pain states in humans”.

Take `Cn1c(=O)cc(N2CCC[C@@H](N)C2)n(Cc2ccccc2C#N)c1=O` [algogliptin]: in data set [2] (IL-6, IL-1β and other cytokines, ref [57]), the “Effect on TLR4 activation-induced cytokine expression” value was “decreased the TLR4 activation-induced IL-6, IL-1β, and other cytokine expression”.

With `C=CCN1CC[C@]23c4c5ccc(O)c4O[C@H]2C(=O)CC[C@@]3(O)[C@H]1C5` [naloxone], the TLR4 antagonism result in data set [3] is “TLR4 antagonists”.

Turning to `N#C[C@@H]1CCCN1C(=O)CNC12CC3CC(CC(O)(C3)C1)C2` [vildagliptin], the “Antihyperalgesic effect in neuropathic condition” value in data set [6] is “antihyperalgesic effects in a neuropathic condition”.

Consider “D-Phe-Cys-Tyr-D-Trp-Arg-Thr-Pen-Thr-NH2 [CTAP]”, for which, in data set [3], the TLR4 antagonism entry is listed as “TLR4 antagonists”.

In the case of lipopolysaccharide [LPS], the “Relative TNFα secretion with LPS” value in data set [7] was 368 ± 9%. The “DPP4 optical density value” in [8] (16 h (control 0.62 ± 0.084), densitometry) is 1.08 ± 0.059. Moreover, the “DPP4 expression level increase” value in [8] (16 h, vs control cultures, three independent cultures, ± SEM) is given as 74.3 ± 9.6%. Moreover, the DPP4 staining intensity result in data set [9] (1 μg/mL LPS, 6 h) is “considerably increased”. In addition, the “TLR4 and caveolin-1 subcellular localization” value in data set [9] (LPS-stimulated cultures, 1 μg/mL) was “both proteins were trafficked toward the cell surface”.

These data come from publication PMC9865214 (International Journal of Molecular Sciences, 2023).
